# Measured values reported in ChEMBL document CHEMBL4052631, “Synthesis of selective 11β-HSD1 inhibitors based on dammarane scaffold” (Eur J Med Chem, 2017).
# Assays:
# [1] = biological target: T1, 11-beta-hydroxysteroid dehydrogenase 1 (Homo sapiens, UniProt P28845); test: Inhibition of full-length human 11beta-HSD1 expressed in HEK293 microsomal fraction using [3H]cortisone as substrate after 2 hr by scintillation proximity assay
# Target sequence in this assay (P28845 whole entry): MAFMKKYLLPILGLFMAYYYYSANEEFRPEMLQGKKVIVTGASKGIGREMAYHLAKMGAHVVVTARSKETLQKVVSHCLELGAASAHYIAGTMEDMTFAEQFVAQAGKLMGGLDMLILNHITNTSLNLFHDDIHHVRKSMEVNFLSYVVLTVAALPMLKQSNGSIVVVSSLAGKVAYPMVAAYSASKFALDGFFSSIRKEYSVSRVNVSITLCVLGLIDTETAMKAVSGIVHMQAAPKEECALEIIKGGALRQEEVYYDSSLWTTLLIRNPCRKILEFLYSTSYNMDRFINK
# [2] = biological target: 11-beta-hydroxysteroid dehydrogenase 1 (Mus musculus) (UniProt P50172); conditions: at 1 µM
# Chain of 11-beta-hydroxysteroid dehydrogenase 1 (Mus musculus) (P50172 whole entry, looked up): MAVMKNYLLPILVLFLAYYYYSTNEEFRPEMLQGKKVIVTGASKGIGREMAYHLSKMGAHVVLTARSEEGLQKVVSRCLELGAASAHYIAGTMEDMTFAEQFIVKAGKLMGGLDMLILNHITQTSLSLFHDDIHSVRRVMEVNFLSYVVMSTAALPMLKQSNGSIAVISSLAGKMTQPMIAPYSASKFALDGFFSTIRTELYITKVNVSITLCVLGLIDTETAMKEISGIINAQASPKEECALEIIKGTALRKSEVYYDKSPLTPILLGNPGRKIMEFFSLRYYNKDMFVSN
# Description: Inhibition of full-length mouse 11beta-HSD1 expressed in HEK293 microsomal fraction at 1 uM using [3H]cortisone as substrate after 1 hr by scintillation proximity assay relative to control
# [3] = biological target: T1, 11-beta-hydroxysteroid dehydrogenase 1; conditions: HEK293, at 1 µM
# Target sequence in this assay (P28845 whole entry, looked up): as the sequence (P28845 whole entry) above
# Description: Inhibition of full-length human 11beta-HSD1 expressed in HEK293 microsomal fraction at 1 uM using [3H]cortisone as substrate after 2 hr by scintillation proximity assay relative to control
# [4] = biological target: T2, 11-beta-hydroxysteroid dehydrogenase 1 (Mus musculus, UniProt P50172); test: Inhibition of mouse N-terminal His-tagged 11beta-HSD1 expressed in Escherichia coli using cortisol as substrate by fluorescence-based assay
# T2 sequence (P50172 whole entry): as the sequence (P50172 whole entry, looked up) above
# [5] = biological target: T1, 11-beta-hydroxysteroid dehydrogenase 1; test: Inhibition of human N-terminal His-tagged 11beta-HSD1 expressed in Escherichia coli using cortisol as substrate by fluorescence-based assay
# Target sequence in this assay (P28845 whole entry): as the sequence (P28845 whole entry) above
# [6] = biological target: T2, 11-beta-hydroxysteroid dehydrogenase 1; test: Inhibition of full-length mouse 11beta-HSD1 expressed in HEK293 microsomal fraction […] after 1 hr by scintillation proximity assay
# [7] = biological target: T3, 11-beta-hydroxysteroid dehydrogenase type 2 (Mus musculus, UniProt P51661); test: Inhibition of full-length mouse 11beta-HSD2 expressed in HEK293 microsomal fraction […] after 1 hr by scintillation proximity assay
# T3 sequence (P51661 whole entry): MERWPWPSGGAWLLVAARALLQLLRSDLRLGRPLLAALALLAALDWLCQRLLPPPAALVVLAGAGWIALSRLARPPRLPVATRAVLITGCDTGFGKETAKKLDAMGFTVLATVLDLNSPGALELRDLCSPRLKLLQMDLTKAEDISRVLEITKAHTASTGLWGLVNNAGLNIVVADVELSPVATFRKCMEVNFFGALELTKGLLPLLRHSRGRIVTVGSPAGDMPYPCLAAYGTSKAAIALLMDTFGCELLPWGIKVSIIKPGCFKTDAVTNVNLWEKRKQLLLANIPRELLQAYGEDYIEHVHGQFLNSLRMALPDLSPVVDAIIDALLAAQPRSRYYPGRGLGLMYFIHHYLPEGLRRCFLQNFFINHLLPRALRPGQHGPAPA
# [8] = biological target: T4, 11-beta-hydroxysteroid dehydrogenase type 2 (Homo sapiens, UniProt P80365); test: Inhibition of full-length human 11beta-HSD2 expressed in HEK293 microsomal fraction using [3H]cortisone as substrate after 2 hr by scintillation proximity assay; format: cell-based
# T4 sequence (P80365 whole entry): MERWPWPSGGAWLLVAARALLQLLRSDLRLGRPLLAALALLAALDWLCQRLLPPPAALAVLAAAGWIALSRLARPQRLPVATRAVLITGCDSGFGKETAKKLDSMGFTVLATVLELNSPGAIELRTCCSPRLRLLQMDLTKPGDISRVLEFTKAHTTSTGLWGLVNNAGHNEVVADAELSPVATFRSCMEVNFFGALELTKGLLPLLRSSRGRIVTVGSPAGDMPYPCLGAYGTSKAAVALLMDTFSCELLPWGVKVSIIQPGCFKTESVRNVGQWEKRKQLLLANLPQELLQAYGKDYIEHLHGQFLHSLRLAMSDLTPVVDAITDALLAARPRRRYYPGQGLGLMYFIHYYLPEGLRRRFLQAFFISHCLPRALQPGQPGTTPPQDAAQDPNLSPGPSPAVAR
compound,measurement,setting,value
CC(=O)O[C@H]1CC[C@]2(C)[C@H]3C[C@@H](OC(C)=O)[C@@H]4[C@@H](C(C)=O)CC[C@@]4(C)[C@]3(C)CC[C@H]2C1(C)C,IC50,[1],244 nM
same,inhibition,[2],40.9%
same,inhibition,[3],69.4%
CC1=C2CC[C@]3(C)[C@@H]2[C@@H](C[C@@H]2[C@@]4(C)CC[C@H](O)C(C)(C)[C@@H]4CC[C@]23C)OCO1,inhibition,[2],15.5%
CC1=CC[C@@]2(CC1O)[C@@H](C(=O)O)CC[C@H]2C(C)C (stereo partly drawn),IC50,[4],460 nM
same,IC50,[5],13 nM
CC(C)CCCC(=O)[C@H]1CC[C@]2(C)[C@@H]1[C@H](O)C[C@@H]1[C@@]3(C)CC[C@H](O)C(C)(C)[C@@H]3CC[C@]12C,inhibition,[2],17.3%
CCC(=O)CC[C@]1(C)C(=O)[C@H](OC(C)=O)C[C@@H]2[C@@]3(C)CC[C@H](OC(C)=O)C(C)(C)[C@@H]3CC[C@]21C,inhibition,[2],13.3%
CC(=O)O[C@H]1CC[C@]2(C)[C@H]3C[C@@H](OC(C)=O)C4=CCC[C@@]4(C)[C@]3(C)CC[C@H]2C1(C)C,inhibition,[2],15.4%
CC1(C)[C@@H](O)CC[C@]2(C)[C@H]3C[C@@H](O)C4=CCC[C@@]4(C)[C@]3(C)CC[C@@H]12,inhibition,[2],33.2%
CC1(C)[C@@H](O)CC[C@]2(C)[C@H]3C[C@@H](O)[C@@H]4[C@@H](CO)CC[C@@]4(C)[C@]3(C)CC[C@@H]12,IC50,[6],476 nM
same,IC50,[7],> 10000 nM
same,inhibition,[2],57.9%
CC1(C)[C@@H](O)CC[C@]2(C)[C@H]3CC(=O)C4=CCC[C@@]4(C)[C@]3(C)CC[C@@H]12,IC50,[1],1050 nM
same,inhibition,[2],47.4%
same,inhibition,[3],50.2%
same,IC50,[8],9580 nM
CC(=O)O[C@H]1CC[C@]2(C)[C@H]3C[C@@H](OC(C)=O)[C@@H]4[C@@H](C(=O)CCCC(C)C)CC[C@@]4(C)[C@]3(C)CC[C@H]2C1(C)C,IC50,[1],101 nM
same,inhibition,[2],10.8%
same,inhibition,[3],81.1%
CC(C)(O)[C@@H]1CC[C@]2(C)[C@H](C[C@@H](O)[C@@H]3[C@@H](O)CC[C@]32C)[C@@]1(C)CCCO,inhibition,[2],16.1%
CC1(C)C=CC[C@]2(C)[C@H]3C[C@@H](O)[C@@H]4[C@@H](O)CC[C@@]4(C)[C@]3(C)CC[C@@H]12,inhibition,[2],40.9%
CC1(C)CCC[C@]2(C)[C@H]3C[C@@H](O)[C@@H]4[C@@H](O)CC[C@@]4(C)[C@]3(C)CC[C@@H]12,inhibition,[2],6.25%
CC1(C)[C@@H](O)CC[C@]2(C)[C@H]3C[C@@H](O)[C@@H]4[C@@H](Cl)CC[C@@]4(C)[C@]3(C)CC[C@@H]12,inhibition,[2],35.8%
CC(=O)O[C@H]1CC[C@]2(C)[C@H]3C[C@@H](O)[C@@H]4[C@@H](O)CC[C@@]4(C)[C@]3(C)CC[C@H]2C1(C)C,IC50,[6],213 nM
same,IC50,[7],> 10000 nM
same,IC50,[1],994 nM
same,inhibition,[2],79%
same,inhibition,[3],51.6%
same,IC50,[8],> 10000 nM
CC(C)(O)[C@@H]1CC[C@]2(C)[C@H](C[C@@H](O)[C@@H]3[C@@H](O)CC[C@]32C)[C@@]1(C)CCC(=O)O,inhibition,[2],20.8%
CC(=O)O[C@H]1CC[C@]2(C)[C@H]3C[C@@H](OC(C)=O)[C@@H]4C(=O)CC[C@@]4(C)[C@]3(C)CC[C@H]2C1(C)C,inhibition,[2],12.5%
CC(=O)OCO[C@@H]1C[C@@H]2[C@@]3(C)CC[C@H](O)C(C)(C)[C@@H]3CC[C@@]2(C)[C@]2(C)CCC(=O)[C@@H]12,inhibition,[2],20.9%
CC(=O)O[C@H]1CC[C@]2(C)[C@H]3C[C@@H](OC(C)=O)[C@@H]4[C@@H](C(=O)CF)CC[C@@]4(C)[C@]3(C)CC[C@H]2C1(C)C,inhibition,[2],11.9%
CC1(C)[C@@H](O)CC[C@]2(C)[C@H]3C[C@@H](O)[C@@H]4[C@@H](C(=O)O)CC[C@@]4(C)[C@]3(C)CC[C@@H]12,inhibition,[2],15.1%
CO[C@H]1CC(=O)[C@]2(C)[C@@H]1[C@H](OC(C)=O)C[C@@H]1[C@@]3(C)CC[C@H](O)C(C)(C)[C@@H]3CC[C@]12C,IC50,[6],400 nM
CC1(C)[C@@H](O)CC[C@]2(C)[C@H]3C[C@H]4OC[C@H]5CC[C@](C)([C@@H]54)[C@]3(C)CC[C@@H]12,inhibition,[2],44.9%
COCO[C@H]1CC[C@]2(C)[C@H]3C[C@@H](OCOC)[C@@H]4[C@@H](C(C)=O)CC[C@@]4(C)[C@]3(C)CC[C@H]2C1(C)C,inhibition,[2],11.5%
CC(=O)[C@]1(O)CC[C@]2(C)[C@@H]1[C@H](O)C[C@@H]1[C@@]3(C)CC[C@H](O)C(C)(C)[C@@H]3CC[C@]12C,IC50,[6],601 nM
same,IC50,[7],> 10000 nM
same,inhibition,[2],65.7%
CC(=O)O[C@H]1CC[C@]2(C)[C@H]3C[C@@H](O)[C@@H]4[C@@H](C(C)=O)CC[C@@]4(C)[C@]3(C)CC[C@H]2C1(C)C,IC50,[6],454 nM
same,IC50,[7],> 10000 nM
same,inhibition,[2],60.9%
CC(=O)O[C@H]1CC[C@]2(C)[C@H]3C[C@@H](OC(C)=O)[C@@H]4[C@@H](O)CC[C@@]4(C)[C@]3(C)CC[C@H]2C1(C)C,inhibition,[2],13.3%
CC(=O)[C@H]1CC[C@]2(C)[C@@H]1[C@H](O)C[C@@H]1[C@@]3(C)CCC(=O)OC(C)(C)[C@@H]3CC[C@]12C,inhibition,[2],27.6%
CC(=O)[C@H]1CC[C@]2(C)[C@@H]1[C@H](O)C[C@@H]1[C@@]3(C)CC[C@H](O)C(C)(C)[C@@H]3CC[C@]12C,inhibition,[2],27.1%
CC1(C)[C@@H](O)CC[C@]2(C)[C@H]3C[C@@H](O)[C@@H]4[C@H](O)CC[C@@]4(C)[C@]3(C)CC[C@@H]12,inhibition,[2],47%
CC1(C)[C@@H](O)CC[C@]2(C)[C@H]3C[C@@H](O)[C@@H]4[C@@H](O)CC[C@@]4(C)[C@]3(C)CC[C@@H]12,inhibition,[2],28.2%
CCC(=O)CC[C@]1(C)C(=O)[C@H](O)C[C@@H]2[C@@]3(C)CC[C@H](OC(C)=O)C(C)(C)[C@@H]3CC[C@]21C,IC50,[1],729 nM
same,inhibition,[2],11.5%
same,inhibition,[3],54.3%
same,IC50,[8],6260 nM
COC(=O)[C@H]1CC[C@]2(C)[C@@H]1[C@H](O)C[C@@H]1[C@@]3(C)CC[C@H](O)C(C)(C)[C@@H]3CC[C@]12C,inhibition,[2],7.69%
CC(=O)O[C@H]1CC[C@]2(C)[C@H]3C[C@@H](OC(C)=O)[C@@H]4[C@@H](C(=O)CO)CC[C@@]4(C)[C@]3(C)CC[C@H]2C1(C)C,IC50,[1],488 nM
same,inhibition,[2],20.1%
same,inhibition,[3],62.6%
CC(=O)O[C@H]1CC[C@]2(C)[C@H]3C[C@@H](OC(C)=O)[C@@H]4[C@@H](Cl)CC[C@@]4(C)[C@]3(C)CC[C@H]2C1(C)C,inhibition,[2],8.02%
CC1(C)[C@@H](O)CC[C@]2(C)[C@H]3C[C@@H](O)[C@]45O[C@H]4CC[C@@]5(C)[C@]3(C)CC[C@@H]12,inhibition,[2],16.9%
CC1(C)[C@@H](O)CC[C@]2(C)[C@H]3C[C@@H](O)[C@@H]4[C@@H](C(=O)CO)CC[C@@]4(C)[C@]3(C)CC[C@@H]12,inhibition,[2],32.2%
CC1(C)[C@@H](O)CC[C@]2(C)[C@H]3C[C@@H](O)[C@@H]4CCC[C@@]4(C)[C@]3(C)CC[C@@H]12,IC50,[6],592 nM
same,IC50,[7],> 100000 nM
same,inhibition,[2],58.4%
